Experimental data reported in the supplement of paper PMC5908809.

What was measured:
[1] = tested on: normal NK cells expanded with K562-aAPC; test: drug sensitivity score (DSS) (DSS units); higher = more sensitive; extreme values may be limits of the assay; conditions: 72 h; IL-2 2.5 ng/mL
Procedure: (§1)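 Drug sensitivity and resistance testing on K562-aAPC-expanded normal NK cells: 5 concentrations (10-fold steps over a 10,000-fold range), 72 h at 37 °C, viability by CellTiter-Glo normalised to DMSO and benzethonium chloride controls; DSS from the fitted curve.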

[2] = tested on: NK-YS (IL-2 2.5 ng/mL); test: as above; conditions: 72 h
[3] = tested on: KHYG-1 (IL-2 2.5 ng/mL); test: as above; conditions: 72 h
[4] = tested on: normal primary NK cells, pool 1 (3 donors), resting (IL-2 0 ng/mL); test: as above; conditions: 72 h
[5] = tested on: normal primary NK cells, pool 1 (3 donors) (IL-2 2.5 ng/mL); test: as above; conditions: 72 h
[6] = tested on: YT (IL-2 2.5 ng/mL); test: as above; conditions: 72 h
[7] = tested on: DERL-7 (IL-2 2.5 ng/mL); test: as above; conditions: 72 h
[8] = tested on: KAI3 (IL-2 2.5 ng/mL); test: as above; conditions: 72 h
[9] = tested on: NKL (IL-2 2.5 ng/mL); test: as above; conditions: 72 h
[10] = tested on: SNK-6 (IL-2 2.5 ng/mL); test: as above; conditions: 72 h
[11] = tested on: IMC-1 (IL-2 20 ng/mL); test: as above; conditions: 72 h
[12] = tested on: normal primary NK cells, pool 3 (3 donors) (IL-2 2.5 ng/mL); test: as above; conditions: 72 h
[13] = tested on: NK-92 (IL-2 2.5 ng/mL); test: as above; conditions: 72 h
[14] = tested on: normal primary NK cells, pool 2 (3 donors) (IL-2 2.5 ng/mL); test: as above; conditions: 72 h
[15] = tested on: NK-YS (IL-2 2.5 ng/mL); test: percent inhibition of viability; higher = more inhibition; conditions: 72 h
[16] = tested on: KHYG-1 (IL-2 2.5 ng/mL); test: as above; conditions: 72 h
[17] = tested on: normal primary NK cells, pool 1 (3 donors), resting (IL-2 0 ng/mL); test: as above; conditions: 72 h
[18] = tested on: normal primary NK cells, pool 1 (3 donors) (IL-2 2.5 ng/mL); test: as above; conditions: 72 h
[19] = tested on: YT (IL-2 2.5 ng/mL); test: as above; conditions: 72 h
[20] = tested on: DERL-7 (IL-2 2.5 ng/mL); test: as above; conditions: 72 h
[21] = tested on: KAI3 (IL-2 2.5 ng/mL); test: as above; conditions: 72 h
[22] = tested on: NKL (IL-2 2.5 ng/mL); test: as above; conditions: 72 h
[23] = tested on: SNK-6 (IL-2 2.5 ng/mL); test: as above; conditions: 72 h
[24] = tested on: IMC-1 (IL-2 20 ng/mL); test: as above; conditions: 72 h
[25] = tested on: normal primary NK cells, pool 3 (3 donors) (IL-2 2.5 ng/mL); test: as above; conditions: 72 h
[26] = tested on: NK-92 (IL-2 2.5 ng/mL); test: as above; conditions: 72 h
[27] = tested on: normal primary NK cells, pool 2 (3 donors) (IL-2 2.5 ng/mL); test: as above; conditions: 72 h
[28] = tested on: normal NK cells expanded with K562-aAPC; test: as above; conditions: 72 h, IL-2 2.5 ng/mL
Procedure: as §1

COCC1(CO)C(=O)C2CCN1CC2 (centres undefined) [APR-246] (max concentration tested 10000 nM)
Conditions | drug sensitivity score
[1] | 5.95
[2] | 1.17
[3] | 0
[4] | 16.9
[5] | 14.2
[6] | 0
[7] | 0.03
[8] | 0.58
[9] | 3.01
[10] | 3.96
[11] | 0
[12] | 15.2
[13] | 0.65
[14] | 15.7

percent inhibition of viability [%]
Conditions | 1 nM | 10 nM | 100 nM | 1000 nM | 10000 nM
[15] | -7.21 | 1.41 | 3.46 | 5.78 | 20.9
[16] | -5.21 | -0.64 | -2.81 | 5.38 | 7.34
[17] | -1.14 | -6.72 | 13.5 | 82.8 | 91.7
[18] | 0.39 | -11.5 | 5.91 | 70.5 | 98
[19] | -1.79 | -3.13 | 4.5 | 1.6 | 7.67
[20] | 4.22 | 1.94 | 4.99 | -6.45 | 12.9
[21] | -1.81 | 0.4 | -2.31 | 2.12 | 16.5
[22] | -3.21 | -5.06 | 5.12 | 11 | 36.4
[23] | 4.82 | 6.66 | 11.8 | 20.5 | 26.2
[24] | -7.37 | -2.9 | -3.59 | 8.76 | 9.03
[25] | -9.08 | -4.43 | 12.5 | 73 | 98
[26] | -5.03 | 9.77 | 10.8 | 10.9 | 10.2
[27] | -11.3 | -4.04 | 11.3 | 77 | 96
[28] | -2.16 | 1.78 | 5.44 | 14.3 | 66.4
